From PMC4552634, “A New Set of Chemical Starting Points with Plasmodium falciparum Transmission-Blocking Potential for Antimalarial Drug Discovery” (PLoS ONE, 2015)
Like-named read-outs stand apart in the source and are kept apart here.

Assays:
[1] = test system: P. falciparum stage V gametocytes; design: BacTiter-Glo ATP luminescence viability of purified stage V gametocytes in 384-well plates, per cent inhibition versus DMSO; details: 48 h, 5 µM; inhibitor
[2] = test system: P. falciparum stage V gametocytes; test: Gametocytocidal ATP bioluminescence assay (single point 5 μM and 1 μM, dose-response); format: cell-based, Plasmodium falciparum; details: for IC50: Plasmodium falciparum
Method: Purified stage IV-V gametocytes were obtained as previously described [10]. Single point ATP bioluminescence assay and dose–response of positive hits was determined in accordance with the previously published protocol [10].

[3] = test system: luciferase reaction (BacTiter-Glo); test: Interference assay (inhibition of the BacTiter-Glo luciferase reaction); format: biochemical; design: concentration or dose not given beside the values; details: ATP interference assay
Method: To discard possible false-positive results, we performed an interference assay in parallel. […] […]. The ATP solution was made by dissolving ATP powder (ATP standard from the ATPlite 1 step assay kit, reference 6016731, Perkin Elmer) in culture medium. The positive control used was the Luciferase Inhibitor I Calbiochem (Merck, 119113) at 100 μM.

[4] = Cytotoxicity in HepG2 cells (intracellular ATP, ATPlite, 48 h); format: cell-based, human; details: human, HepG2 cells; IC50 per ratio column head; unit inferred; read-out: Cytotoxicity in HepG2
HepG2 cells = test: as above; format: cell-based, human; details: IC50 HepG2 divided by IC50 P. falciparum gametocytes
[5] = test system: P. falciparum asexual stages; details: TCAMS data, cited from earlier work
adenosine A3 receptor = test system: adenosine A3 receptor; design: method as in TCAMS annotation; details: target annotation in TCAMS; ref TCAMS annotation; cited from earlier work
[6] = test system: KCa2.2, a calcium-dependent K+ channel; design: method as in TCAMS annotation; details: target annotation in TCAMS; ref TCAMS annotation; cited from earlier work
[7] = P. falciparum gametocytes, average, read-out: IC50 Pf Gametocytes average, IC50 (µM) average
[8] = sexual stages (gametocytes), dose-response, read-out: IC50 sexual
[9] = P. falciparum asexual stages, read-out: IC50 (µM) Pf asexual stages
[10] = asexual stages, read-out: IC50 asexual

| SMILES | % Inhibition [1] [%] | Ratio IC50 HepG2/IC50 P. falciparum ([2]; IC50 HepG2 divided by IC50 P. falciparum gametocytes) | IC50 [2, 7] [µM] | IC50 [2, 8] [µM] | % Control luminiscence [3] [%] | IC50 at 48 h [4] [nM] | Ratio IC50 HepG2/IC50 P. falciparum (HepG2 cells) | IC50 [5, 9] [µM] | IC50 [5, 10] [µM] | reported as an adenosine A3 receptor ligand (adenosine A3 receptor) | IC50 ([2]; gametocytes (GC), value as repeated in the Clusters sheet, read-out: IC50 GC) [µM] | reported as inhibitors of KCa2.2 [6] |
| --- | --- | --- | --- | --- | --- | --- | --- | --- | --- | --- | --- | --- |
| NC(=O)c1ccccc1Nc1nc(Nc2ccn[nH]2)ncc1Cl [TCMDC-134169] | -47.65 |  |  |  |  |  |  |  |  |  |  |  |
| Cc1ccccc1N1CCN(c2ccc(C(=O)NC3CC3)cn2)CC1 [TCMDC-134578] | 39.4 |  |  |  |  |  |  |  |  |  |  |  |
| O=C(Nc1nc(-c2ccccn2)cc2ccccc12)c1cccc(Cl)c1 [TCMDC-123886] |  | >50 | 0.5 | 0.497 | 100 | > 25000 | >50 | 0.75 | 0.754 | ligand |  |  |
| Cc1ccnc(Nc2nc(-c3ccccn3)cs2)c1 [TCMDC-125769] |  |  | 0.0433 | 0.043 |  |  |  | 1 | 0.998 |  | 0.04 | inhibitors |
| Clc1ccc(Nc2nc(-c3ccccn3)cs2)nc1 [TCMDC-123885] |  |  | 0.67 |  | 100 |  |  | 0.77 | 0.774 |  |  | inhibitors |
